Assay results reported in patent US6235759A, “Dihydropyridinones and pyrrolinones useful as alpha 1A adrenoceptor antagonists” (Merck & Co., Inc., priority 1999, dated 2001).

Assays:
[1] = system: human alpha 1b adrenergic receptor; test: Selective Binding Assay, alpha 1b ([125I]-HEAT competition); conditions: alpha 1a versus alpha 1b
Procedure: Membranes prepared from stably transfected human alpha 1d and alpha 1b cell lines (ATCC CRL 11138 and CRL 11139, respectively) were used to identify compounds that selectively bind to the human alpha 1a adrenergic receptor. These competition binding reactions (total volume=200 μl) contained 50 mM Tris-HCl pH. 7.4, 5 mM EDTA, 150 mM NaCl, 100 pM [^125 I]-HEAT, membranes prepared from cell lines transfected with the respective alpha 1 subtype expression plasmid and increasing amounts of unlabeled ligand. Reactions were incubated at room temperature for one hour with shaking. Reactions were filtered onto Whatman GF/C glass fiber filters with a Inotec 96 well cell harvester. Filters were washed three times with ice cold buffer and bound radioactivity was determined (Ki).

[2] = target: T1, human alpha 1a adrenergic receptor (Homo sapiens, UniProt P35348); test: Screening Assay: Alpha 1a Adrenergic Receptor Binding ([125I]-HEAT competition)
T1 construct: expressed in transfected cells; host or cells: stably transfected human alpha 1a cell line (ATCC CRL 11140)
T1 sequence (P35348 1-466): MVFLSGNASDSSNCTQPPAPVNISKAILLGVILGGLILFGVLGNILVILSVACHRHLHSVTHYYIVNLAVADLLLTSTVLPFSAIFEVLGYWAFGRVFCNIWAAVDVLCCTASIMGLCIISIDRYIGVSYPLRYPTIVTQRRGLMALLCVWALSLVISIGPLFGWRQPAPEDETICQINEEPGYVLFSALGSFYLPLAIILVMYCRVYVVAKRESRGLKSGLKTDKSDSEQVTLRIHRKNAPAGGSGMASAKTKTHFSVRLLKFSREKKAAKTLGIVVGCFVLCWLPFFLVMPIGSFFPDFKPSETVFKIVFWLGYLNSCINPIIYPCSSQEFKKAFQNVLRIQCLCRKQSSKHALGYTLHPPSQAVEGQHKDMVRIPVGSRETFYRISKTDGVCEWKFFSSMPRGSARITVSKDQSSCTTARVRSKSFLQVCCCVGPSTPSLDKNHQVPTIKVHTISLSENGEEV
Procedure: Screening Assay: Alpha 1a Adrenergic Receptor Binding
Membranes prepared from the stably transfected human alpha 1a cell line (ATCC CRL 11140) were used to identify compounds that bind to the human alpha 1a adrenergic receptor. These competition binding reactions (total volume=200 μl) contained 50 mM Tris-HCl pH. 7.4, 5 mM EDTA, 150 mM NaCl, 100 pM [^125 I]-HEAT, membranes prepared from the alpha 1a cell line and increasing amounts of unlabeled ligand. Reactions were incubated at room temperature for one hour with shaking. Reactions were filtered onto Whatman GF/C glass fiber filters with a Inotec 96 well cell harvester. Filters were washed three times with ice cold buffer and bound radioactivity was determined (Ki).

alpha 1 antagonist activity of the (S) enantiomer relative to the (R) enantiomer ([2]; enantiomer comparison, in words, test not specified) | SMILES | selectivity in binding to alpha 1a receptors versus alpha 1b [1] | Ki ([2]; human alpha 1a cell line membranes, 100 pM [125I]-HEAT, room temperature, one hour)
– | CC1=C(C(=O)NCCCN2CCC(C#N)(c3ccccn3)CC2)[C@@H](c2ccc(F)c(F)c2)CC(=O)N1C [Example 17, 4-(R)-(3 ,4-Difluorophenyl)-1,6-dimethyl-3,4-dihydro-2-pyridinone-5-carboxylic acid{3-[4-(2-pyridyl)-4-cyano-piperidine-1-yl]-propyl}amide] | about 8 fold | 0.257 µM
less active | CC1=C(C(=O)NCCCN2CCC(c3ccc(F)cc3)CC2)[C@H](c2ccc(F)c(F)c2)CC(=O)N1 [Example 18 (S enantiomer), 4-(S)-(3,4-difluorophenyl)-6-methyl-3,4-dihydro-2-pyridinone-5-carboxylic acid{3-[4-(4-fluorophenyl)-piperidine-1-yl]-propyl}amide] | – | –
